This note sets out measurements from patent US20220265644A1, “FIXED DOSE COMBINATION DRUG FOR THE TREATMENT OF MALARIA” (priority 2020, published 2022).

Assay [1] has as its system P. vivax. Put plainly: Synriam Phase III, N=164, randomized, open label, multi-centric, uncomplicated P. vivax malaria. The assay is classed as in vivo. As to conditions: Children 6 months - 12 Y.
The test system of assay [2] is P. vivax. Put plainly: Synriam Phase III, N=317, randomized, open label, multi-centric, uncomplicated P. vivax malaria. Format: in vivo. The note with it: Adults, Children >12 - 65 Y.
In assay [3] the test system is early ring stages from artemisinin-resistant and artemisinin-sensitive parasites (P. falciparum). In words: Ring Stage Assay (RSA) as per WHO's recommendation. As to conditions: at 700 nM. Format: cell-based.

Regarding `CCN(CC)CCCC(C)Nc1ccnc2cc(Cl)ccc12` (stereo not shown) [Chloroquine], the “Proportion of aparasitemic & afebrile patients at 72 h (%) ITT” value in the assay with P. vivax [1] (72 h, ITT) is listed as 100%; in the assay with P. vivax [2] (72 h, ITT), 98.7%. Besides, the “Proportion of aparasitemic & afebrile patients at 72 h (%) PP” value with P. vivax [1] (72 h, PP) is “PP: 100 vs. 100%”; with P. vivax [2] (72 h, PP) it was 99.3%. Moreover, the “FCT Median” value in the assay on P. vivax [1] (India) stood at 18 h. Also, the “PCT Median” value was 24 h in the assay on P. vivax [1] (India) and 26 h in the assay with P. vivax [2] (India). Besides, the “FCT Median (h)” value in the assay with P. vivax [2] (India) was determined as 24 vs. 24 h.
For the molecule Arterolane, the “cross-resistance to DHA” value in assay [3] is recorded as “no cross-resistance to DHA”. Further, the “activity against early ring stages” value in assay [3] (artemisinin-resistant and artemisinin-sensitive parasites) is reported as “extremely active”.
